According to the supplement of paper PMC10307832:

Columns and labels:
Assay in all cases: relative viability (nuclei count vs DMSO), 5 days (fraction); higher = more cells survive
Sorafenib + Tozasertib = compound: CNC(=O)c1cc(Oc2ccc(NC(=O)Nc3ccc(Cl)c(C(F)(F)F)c3)cc2)ccn1 [Sorafenib] + Cc1cc(Nc2cc(N3CCN(C)CC3)nc(Sc3ccc(NC(=O)C4CC4)cc3)n2)n[nH]1 [Tozasertib] (partner 0.1 µM)
Summary of the method: (§1)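 For relative viability, nuclei counts in treated wells were divided by those in vehicle wells. Lung cancer cell lines had been pin-tool dosed in 1536-well plates the day after seeding and cultured for 5 days, then fixed and stained in one step (final 0.05% Triton X-100, 1% formaldehyde, 1 ug/ml Hoechst) and imaged at 4×. Doses were one drug alone or a fixed anchor-drug dose plus five library-drug doses (not always all listed) in √10 steps, and values are duplicate-plate medians.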

Sorafenib + Alpelisib = compound: CNC(=O)c1cc(Oc2ccc(NC(=O)Nc3ccc(Cl)c(C(F)(F)F)c3)cc2)ccn1 [Sorafenib] + Cc1nc(NC(=O)N2CCC[C@H]2C(N)=O)sc1-c1ccnc(C(C)(C)C(F)(F)F)c1 [Alpelisib] (partner 2 µM)
Summary of the method: as §1

Sorafenib + Trametinib = compound: CNC(=O)c1cc(Oc2ccc(NC(=O)Nc3ccc(Cl)c(C(F)(F)F)c3)cc2)ccn1 [Sorafenib] + CC(=O)Nc1cccc(-n2c(=O)n(C3CC3)c(=O)c3c(Nc4ccc(I)cc4F)n(C)c(=O)c(C)c32)c1 [Trametinib] (partner 0.02 µM)
Summary of the method: as §1

Sorafenib + Olaparib = compound: CNC(=O)c1cc(Oc2ccc(NC(=O)Nc3ccc(Cl)c(C(F)(F)F)c3)cc2)ccn1 [Sorafenib] + O=C(c1cc(Cc2n[nH]c(=O)c3ccccc23)ccc1F)N1CCN(C(=O)C2CC2)CC1 [Olaparib] (partner 8 µM)
Summary of the method: as §1

Sorafenib + Phenformin = compound: CNC(=O)c1cc(Oc2ccc(NC(=O)Nc3ccc(Cl)c(C(F)(F)F)c3)cc2)ccn1 [Sorafenib] + N=C(N)NC(=N)NCCc1ccccc1 [Phenformin] (partner 250 µM)
Summary of the method: as §1

| Cell Line | relative viability (Sorafenib + Tozasertib; first compound 0.08 µM) | relative viability (Sorafenib + Tozasertib; first compound 0.253 µM) | relative viability (Sorafenib + Tozasertib; first compound 2.53 µM) | relative viability (Sorafenib + Tozasertib; first compound 8 µM) | relative viability (Sorafenib + Alpelisib; first compound 0.08 µM) | relative viability (Sorafenib + Alpelisib; first compound 0.253 µM) | relative viability (Sorafenib + Alpelisib; first compound 2.53 µM) | relative viability (Sorafenib + Alpelisib; first compound 8 µM) | relative viability (Sorafenib + Trametinib; first compound 0.08 µM) | relative viability (Sorafenib + Trametinib; first compound 0.253 µM) | relative viability (Sorafenib + Trametinib; first compound 2.53 µM) | relative viability (Sorafenib + Trametinib; first compound 8 µM) | relative viability (Sorafenib + Olaparib; first compound 0.08 µM) | relative viability (Sorafenib + Olaparib; first compound 0.253 µM) | relative viability (Sorafenib + Olaparib; first compound 2.53 µM) | relative viability (Sorafenib + Olaparib; first compound 8 µM) | relative viability (Sorafenib + Phenformin; first compound 0.08 µM) | relative viability (Sorafenib + Phenformin; first compound 0.253 µM) | relative viability (Sorafenib + Phenformin; first compound 2.53 µM) | relative viability (Sorafenib + Phenformin; first compound 8 µM) |
| --- | --- | --- | --- | --- | --- | --- | --- | --- | --- | --- | --- | --- | --- | --- | --- | --- | --- | --- | --- | --- |
| BEN | 0.519 | 0.423 | 0.536 | 0.482 | 1.1 | 0.889 | 0.906 | 0.798 | 1.11 | 0.911 | 0.945 | 0.913 | 1.02 | 1.1 | 1.01 | 0.791 | 0.278 | 0.254 | 0.239 | 0.205 |
| NCI-H2085 | 0.849 | 0.833 | 0.611 | – | 0.998 | 0.878 | 0.882 | 0.777 | 0.643 | 0.464 | 0.43 | 0.391 | 0.763 | 0.851 | 1.01 | 0.761 | – | 0.623 | 0.756 | 0.48 |
| EMC-BAC-2 | 0.297 | 0.186 | 0.266 | 0.295 | – | 0.73 | 0.707 | 0.702 | 0.86 | – | 0.7 | 0.44 | 0.473 | 0.387 | 0.45 | 0.461 | 0.504 | 0.464 | 0.507 | 0.316 |
| A-427 | 0.21 | 0.261 | 0.217 | 0.132 | 1.08 | 1.07 | 1.06 | 0.925 | 0.731 | 0.754 | 0.551 | 0.383 | 0.71 | 0.771 | 0.733 | 0.635 | 0.444 | 0.389 | 0.333 | 0.115 |
| LC-2-ad | 0.405 | 0.478 | 0.478 | 0.462 | 1.02 | 0.863 | – | 0.678 | 0.934 | 0.822 | 0.732 | 0.396 | 0.738 | 0.768 | 0.751 | 0.655 | 0.595 | 0.495 | 0.613 | 0.453 |
| ChaGo-K-1 | 0.229 | 0.235 | 0.215 | 0.192 | – | – | – | – | 0.884 | 0.855 | 0.886 | 0.708 | 0.41 | 0.388 | 0.441 | 0.361 | 0.552 | 0.405 | 0.469 | 0.299 |
| NCI-H1650 | 0.397 | 0.39 | 0.361 | 0.257 | – | – | – | – | 0.858 | 0.499 | 0.752 | 0.241 | 0.684 | 0.741 | 0.707 | 0.643 | 0.557 | 0.456 | 0.564 | 0.164 |
| SW 1573 | 0.194 | 0.205 | 0.174 | 0.119 | 0.879 | 0.757 | 0.805 | 0.578 | 0.549 | 0.608 | 0.337 | 0.131 | 0.47 | 0.518 | 0.437 | 0.132 | 0.446 | 0.403 | 0.388 | 0.0803 |
| LOU-NH91 | 0.69 | 0.681 | 0.767 | 0.647 | 0.896 | 0.791 | 0.885 | 0.589 | 0.782 | 0.769 | 0.837 | 0.746 | 0.936 | 0.975 | 0.96 | 0.657 | 0.784 | 0.678 | 0.73 | 0.489 |
| NCI-H1944 | 0.281 | 0.292 | 0.266 | 0.206 | 0.882 | 0.909 | 1.01 | 0.706 | 0.384 | 0.436 | 0.367 | 0.253 | 0.391 | 0.379 | 0.382 | 0.35 | 0.207 | 0.188 | 0.21 | 0.144 |
| HCC-366 | 0.109 | 0.083 | 0.054 | 0.0297 | 0.563 | 0.484 | 0.429 | 0.307 | 0.403 | 0.436 | 0.331 | 0.226 | 0.354 | 0.319 | 0.287 | 0.268 | 0.598 | 0.507 | 0.539 | 0.559 |
| COR-L 105 | 0.405 | 0.435 | 0.322 | 0.411 | 1.09 | 0.95 | 0.966 | 0.793 | 0.51 | 0.472 | 0.432 | 0.378 | 0.697 | 0.72 | 0.78 | 0.718 | 0.534 | 0.458 | 0.561 | 0.441 |
| SK-MES-1 | 0.823 | 0.833 | 0.714 | 0.439 | 0.957 | 0.877 | 0.854 | 0.873 | 0.627 | 0.614 | 0.315 | 0.231 | 0.664 | 0.551 | 0.648 | 0.258 | 0.689 | 0.62 | 0.596 | 0.424 |
| NCI-H2023 | 0.282 | 0.278 | 0.229 | 0.142 | 0.659 | 0.603 | 0.613 | 0.438 | 0.686 | 0.539 | 0.459 | 0.112 | 0.45 | 0.477 | 0.465 | 0.115 | 0.51 | 0.395 | 0.374 | 0.174 |
| NCI-H1755 | 0.498 | 0.532 | 0.471 | 0.456 | 0.977 | 0.93 | 0.857 | 0.694 | 0.8 | 0.761 | 0.71 | 0.557 | 0.912 | 0.797 | 0.856 | 0.748 | 0.569 | – | 0.624 | 0.534 |
| HARA | 0.0919 | 0.137 | 0.146 | 0.1 | 0.991 | 0.773 | 0.856 | 0.797 | 0.626 | – | 0.233 | 0.228 | 0.868 | 0.794 | 0.391 | 0.478 | 0.498 | 0.456 | 0.41 | 0.307 |
